Laboratory results from patent US6677331B2, “Carbapenem derivatives” (Meiji Seika Kaisha, Ltd., priority 1998, dated 2004).
Converted amounts (≈) assume the structure as drawn.

What was measured:
porcine renal DHP-I = target: T1, porcine renal DHP-I (Sus scrofa, UniProt P22412); experiment: Test 2: stability against DHP-I (porcine); conditions: partly purified Porcine DHP-I, 100 μg (titer)/ml, 37° C., HPLC
T1 sequence (P22412 17-384): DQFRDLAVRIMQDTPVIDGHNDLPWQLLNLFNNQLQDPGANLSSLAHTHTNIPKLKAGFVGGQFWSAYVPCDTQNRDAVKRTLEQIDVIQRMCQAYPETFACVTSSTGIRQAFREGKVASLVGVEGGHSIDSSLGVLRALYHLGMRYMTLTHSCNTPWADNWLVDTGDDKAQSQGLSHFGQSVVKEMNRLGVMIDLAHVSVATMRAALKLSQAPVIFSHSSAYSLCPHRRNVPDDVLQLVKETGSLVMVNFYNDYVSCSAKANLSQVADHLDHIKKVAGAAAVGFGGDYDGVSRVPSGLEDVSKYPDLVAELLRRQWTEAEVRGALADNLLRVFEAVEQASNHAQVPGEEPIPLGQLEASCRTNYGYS

mouse DHP-I = target: T2, mouse DHP-I (Mus musculus, UniProt P31428); experiment: Test 2: stability against DHP-I (mouse); conditions: partly purified Mouse DHP-I; 100 μg (titer)/ml; 37° C., 3 hours; HPLC
T2 sequence (P31428 17-384): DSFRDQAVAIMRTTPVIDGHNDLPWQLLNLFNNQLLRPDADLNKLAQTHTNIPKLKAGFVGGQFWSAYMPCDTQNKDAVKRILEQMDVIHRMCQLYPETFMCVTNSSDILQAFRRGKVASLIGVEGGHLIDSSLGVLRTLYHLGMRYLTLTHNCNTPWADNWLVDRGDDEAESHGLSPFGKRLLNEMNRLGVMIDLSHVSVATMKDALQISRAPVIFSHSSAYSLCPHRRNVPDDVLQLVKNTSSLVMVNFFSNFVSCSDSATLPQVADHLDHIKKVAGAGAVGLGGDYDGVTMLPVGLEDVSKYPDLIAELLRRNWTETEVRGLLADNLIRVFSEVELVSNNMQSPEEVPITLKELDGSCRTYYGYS

P. vulgaris GN7919 = experiment: Test 1: Anti-Microbial Activities (MIC); assay type: cell-based; conditions: Sensitivity Disk agar-N+5% Horse blood, inoculants 10^6 CFU/ml; for MIC: Proteus vulgaris, read-out: minimum inhibiting concentrations (MIC)
Protocol: (§1) The minimum inhibiting concentrations (MIC, μg/ml) of the compounds according to the present invention to various pathogenic bacteria was measured in accordance with the method described in CHEMOTHERAPY, vol. 16, No. 1,99, 1968. The culture medium for measurement was Sensitivity Disk agar-N+5% Horse blood, and the amount of inoculants was 10^6 CFU/ml.

M. catarrhalis W-0500 = experiment: Test 1: Anti-Microbial Activities (MIC); assay type: cell-based; conditions: inoculants 10^6 CFU/ml; for MIC: Moraxella catarrhalis, W0500, Sensitivity Disk agar-N+5% Horse blood, read-out: minimum inhibiting concentrations (MIC)
Protocol: as §1

S. epidermidis ATCC14990 = experiment: Test 1: Anti-Microbial Activities (MIC); assay type: cell-based; conditions: Sensitivity Disk agar-N+5% Horse blood, inoculants 10^6 CFU/ml; for MIC: Staphylococcus epidermidis, read-out: minimum inhibiting concentrations (MIC)
Protocol: as §1

K. pneumoniae PCI602 = experiment: Test 1: Anti-Microbial Activities (MIC); assay type: cell-based; conditions: Sensitivity Disk agar-N+5% Horse blood, inoculants 10^6 CFU/ml; for MIC: Klebsiella pneumoniae, read-out: minimum inhibiting concentrations (MIC)
Protocol: as §1

E. hirae ATCC8043 = experiment: Test 1: Anti-Microbial Activities (MIC); assay type: cell-based; conditions: Sensitivity Disk agar-N+5% Horse blood, inoculants 10^6 CFU/ml; for MIC: Enterococcus hirae, read-out: minimum inhibiting concentrations (MIC)
Protocol: as §1

S. aureus M126 = experiment: Test 1: Anti-Microbial Activities (MIC); assay type: cell-based; conditions: S. aureus M126, methicillin-hyperresistant strain (MRSA), Sensitivity Disk agar-N+5% Horse blood, inoculants 10^6 CFU/ml; for MIC: Staphylococcus aureus, read-out: minimum inhibiting concentrations (MIC)
Protocol: as §1

S. pneumoniae PRC9 = experiment: Test 1: Anti-Microbial Activities (MIC); assay type: cell-based; conditions: S. pneumoniae PRC9, penicillin-hyperresistant strain (PRSP), Sensitivity Disk agar-N+5% Horse blood, inoculants 10^6 CFU/ml; for MIC: Streptococcus pneumoniae, read-out: minimum inhibiting concentrations (MIC)
Protocol: as §1

E. faecalis W-73 = experiment: Test 1: Anti-Microbial Activities (MIC); assay type: cell-based; conditions: inoculants 10^6 CFU/ml; for MIC: Enterococcus faecalis, W73, Sensitivity Disk agar-N+5% Horse blood, read-out: minimum inhibiting concentrations (MIC)
Protocol: as §1

C. freundii GN346 = experiment: Test 1: Anti-Microbial Activities (MIC); assay type: cell-based; conditions: Sensitivity Disk agar-N+5% Horse blood, inoculants 10^6 CFU/ml; for MIC: Citrobacter freundii, read-out: minimum inhibiting concentrations (MIC)
Protocol: as §1

S. aureus 209P JC-1 = experiment: Test 1: Anti-Microbial Activities (MIC); assay type: cell-based; conditions: Sensitivity Disk agar-N+5% Horse blood, inoculants 10^6 CFU/ml; for MIC: Staphylococcus aureus, read-out: minimum inhibiting concentrations (MIC)
Protocol: as §1

H. influenzae PRC2 = experiment: Test 1: Anti-Microbial Activities (MIC); assay type: cell-based; conditions: Sensitivity Disk agar-N+5% Horse blood, inoculants 10^6 CFU/ml; for MIC: Haemophilus influenzae, read-out: minimum inhibiting concentrations (MIC)
Protocol: as §1

E. coli NIHJ JC-2 = experiment: Test 1: Anti-Microbial Activities (MIC); assay type: cell-based; conditions: inoculants 10^6 CFU/ml; for MIC: Escherichia coli, NIHJJC2, Sensitivity Disk agar-N+5% Horse blood, read-out: minimum inhibiting concentrations (MIC)
Protocol: as §1

H. influenzae PRC44 = experiment: Test 1: Anti-Microbial Activities (MIC); assay type: cell-based; conditions: Sensitivity Disk agar-N+5% Horse blood, inoculants 10^6 CFU/ml; for MIC: Haemophilus influenzae, read-out: minimum inhibiting concentrations (MIC)
Protocol: as §1

[1] = Test 5: Acute Toxicity (i.v.); assay type: in vivo, mice (ICR, male); conditions: mice, 2,000 mg/kg i.v.
Protocol: The compounds of Examples 44, 62, 88, and 111 were tested again in the same manner as the above provided that cilastatin sodium was co-administered.

[2] = Sensitivity Disk agar-N+5% Horse blood
[3] = cilastatin sodium co-administered

| Compound | residual amounts (%) after 3 hours (porcine renal DHP-I) [%] | residual amounts (%) after 3 hours (mouse DHP-I) [%] | MIC (P. vulgaris GN7919) [µg/mL] | MIC (M. catarrhalis W-0500) [µg/mL] | MIC (S. epidermidis ATCC14990) [µg/mL] | MIC (K. pneumoniae PCI602) [µg/mL] | MIC (E. hirae ATCC8043) [µg/mL] | MIC (S. aureus M126) [µg/mL] | MIC (S. pneumoniae PRC9) [µg/mL] | MIC (E. faecalis W-73) [µg/mL] | MIC (C. freundii GN346) [µg/mL] | MIC (S. aureus 209P JC-1) [µg/mL] | MIC (H. influenzae PRC2) [µg/mL] | MIC (E. coli NIHJ JC-2) [µg/mL] | MIC (H. influenzae PRC44) [µg/mL] | other results |
| --- | --- | --- | --- | --- | --- | --- | --- | --- | --- | --- | --- | --- | --- | --- | --- | --- |
| C[C@@H](O)[C@H]1C(=O)N2C(C(=O)O)=C(SCCN=CN)C[C@H]12 [Compound A, imipenem, reference compound] | <0.3 | 14 | 0.1 (≈ 0.334 µM) | 0.05 (≈ 0.167 µM) | < 0.025 | 0.2 (≈ 0.668 µM) | 0.78 (≈ 2.61 µM) | 25 (≈ 83.5 µM) | 0.2 (≈ 0.668 µM) | 0.78 (≈ 2.61 µM) | 0.2 (≈ 0.668 µM) | < 0.025 | 0.78 (≈ 2.61 µM) | 0.1 (≈ 0.334 µM) | 12.5 (≈ 41.8 µM) |  |
| (1R,5S,6S)-6-((1R)-1-hydroxyethyl)-1-methyl-2-[(3S,5S)-5-(6-methylimidazo[5,1-b]thiazolium-2-yl)methylpyrrolidin-3-yl]thiocarbapen-2-em-3-carboxylic acid iodide [Compound B, reference compound] |  |  |  |  |  |  |  |  |  |  |  |  |  |  |  | minimum inhibiting concentrations (MIC) (P. vulgaris GN7919): 0.10 µg/mL; minimum inhibiting concentrations (MIC) (M. catarrhalis W-0500; [2]): <0.025 µg/mL; minimum inhibiting concentrations (MIC) (S. epidermidis ATCC14990): 0.05 µg/mL; minimum inhibiting concentrations (MIC) (K. pneumoniae PCI602): 0.10 µg/mL; minimum inhibiting concentrations (MIC) (E. hirae ATCC8043): 1.56 µg/mL; minimum inhibiting concentrations (MIC) (S. aureus M126): 6.25 µg/mL; minimum inhibiting concentrations (MIC) (S. pneumoniae PRC9): 0.39 µg/mL; minimum inhibiting concentrations (MIC) (E. faecalis W-73; [2]): 3.13 µg/mL; minimum inhibiting concentrations (MIC) (C. freundii GN346): 0.10 µg/mL; minimum inhibiting concentrations (MIC) (S. aureus 209P JC-1): <0.025 µg/mL; minimum inhibiting concentrations (MIC) (H. influenzae PRC2): 0.10 µg/mL; minimum inhibiting concentrations (MIC) (E. coli NIHJ JC-2; [2]): 0.05 µg/mL; minimum inhibiting concentrations (MIC) (H. influenzae PRC44): 0.78 µg/mL |
| C[C@@H](O)[C@H]1C(=O)N2C(C(=O)[O-])=C(c3cn4cnc(C(=O)CO)c4s3)[C@H](C)[C@H]12.[Na+] [Example 71, Sodium (1S,5R,6S)-2-(7-Hydroxyacetylimidazo[5,1-b]thiazol-2-yl)-6-((1R)-1-hydroxyethyl)-1-methyl-1-carbapen-2-em-3-carboxylate] | 33 | <0.1 | < 0.025 | < 0.025 | < 0.025 | < 0.025 | 0.39 | 3.13 | 0.1 | 0.39 | 0.39 | < 0.025 | < 0.025 | < 0.025 | 0.05 |  |
| C[C@@H](O)[C@H]1C(=O)N2C(C(=O)[O-])=C(c3cn4cnc([S+](C)[O-])c4s3)[C@H](C)[C@H]12.[Na+] (stereo partly drawn) [Example 26, Sodium (1S,5R,6S)-6-((1R)-1-Hydroxyethyl)-2-(7-methanesulfinylimidazo[5,1-b]thiazol-2-yl)-1-methyl-1-carbapen-2-em-3-carboxylate] | 44 | 11 | 0.2 | 0.05 | < 0.025 | 0.1 | 0.78 | 6.25 | 0.1 | 0.39 | 1.56 | < 0.025 | < 0.025 | 0.05 | 0.05 |  |
| CC(=O)c1nc(C)n2cc(C3=C(C(=O)[O-])N4C(=O)[C@H]([C@@H](C)O)[C@H]4[C@H]3C)sc12.[Na+] [Example 19, Sodium (1S,5R,6S)-2-(7-Acetyl-5-methylimidazo[5,1-b]thiazol-2-yl)-6-((1R)-1-hydroxyethyl)-1-methyl-1-carbapen-2-em-3-carboxylate] | 77 | 45 |  |  |  |  |  |  |  |  |  |  |  |  |  |  |
| CCC(=O)c1ncn2cc(C3=C(C(=O)[O-])N4C(=O)[C@H]([C@@H](C)O)[C@H]4C3)sc12.[Na+] [Example 27, Sodium (5R,6S)-6-((1R)-1-Hydroxyethyl)-2-(7-propionylimidazo[5,1-b]thiazol-2-yl)-1-carbapen-2-em-3-carboxylate] | 38 | 1.2 | 0.2 | < 0.025 | 0.05 | 0.1 | 0.39 | 0.78 | 0.05 | 0.1 | 0.39 | 0.05 | < 0.025 | 0.2 | 0.05 |  |
| C[C@@H](O)[C@H]1C(=O)N2C(C(=O)O)=C(S[C@@H]3CN[C@H](C(=O)N(C)C)C3)[C@H](C)[C@H]12 [Compound C, meropenem, reference compound] | 41 | 8.5 |  |  |  |  |  |  |  |  |  |  |  |  |  |  |
| C[C@@H](O)[C@H]1C(=O)N2C(C(=O)[O-])=C(c3cn4cnc(S(=O)(=O)N(C)C)c4s3)[C@H](C)[C@H]12.[Na+] [Example 88, Sodium (1S,5R,6S)-2-[7-(N,N-dimethylsulfamoyl)imidazo[5,1-b]thiazol-2-yl]-6-((1R)-1-hydroxyethyl)-1-methyl-1-carbapen-2-em-3-carboxylate] | 73 | <0.1 | 0.78 | < 0.025 | < 0.025 | 0.39 | 0.39 | 1.56 | 0.05 | 0.39 | 3.13 | < 0.025 | < 0.025 | 0.39 | 0.1 | survival (acute toxicity) [1]: All of the animal survived; survival (acute toxicity) [1, 3]: All of the animal survived |
| Cc1nc(S(C)(=O)=O)c2sc(C3=C(C(=O)[O-])N4C(=O)[C@H]([C@@H](C)O)[C@H]4[C@H]3C)cn12.[Na+] [Example 44, Sodium (1S,5R,6S)-6-((1R)-1-Hydroxyethyl)-2-(7-methanesulfonyl-5-methylimidazo[5,1-b]thiazol-2-yl)-1-methyl-1-carbapen-2-em-3-carboxylate] | 100 |  | 0.78 | < 0.025 | 0.05 | 1.56 | 0.78 | 3.13 | 0.1 | 0.78 | 12.5 | 0.05 | < 0.025 | 0.78 | 0.1 | survival (acute toxicity) [1]: All of the animal survived; survival (acute toxicity) [1, 3]: All of the animal survived |
